One assay relates to calcium homeostasis. The settings on record: in animals and humans; cited from earlier work.
Assay [1] concerns progesterone receptor (PR). To be noted: U.S. Pat. No. 5,397,776; cited from earlier work.
Another assay has as its system vitamin D receptor. The settings on record: U.S. Pat. No. 5,397,776; cited from earlier work.
For assay [2] the following is noted: U.S. Pat. No. 5,397,776; cited from earlier work.
The next assay addresses T1, progesterone receptor (Homo sapiens, UniProt P06401).
T1 construct: The source of the progesterone receptor is the cytosolic fraction of MCF-7 cells (human breast cancer cell line); endogenous in cells; host or cells: MCF-7 cells (human breast adenocarcinoma), cytosolic fraction, 10 nM estradiol for 24 h before harvest
T1 sequence (P06401 1-933): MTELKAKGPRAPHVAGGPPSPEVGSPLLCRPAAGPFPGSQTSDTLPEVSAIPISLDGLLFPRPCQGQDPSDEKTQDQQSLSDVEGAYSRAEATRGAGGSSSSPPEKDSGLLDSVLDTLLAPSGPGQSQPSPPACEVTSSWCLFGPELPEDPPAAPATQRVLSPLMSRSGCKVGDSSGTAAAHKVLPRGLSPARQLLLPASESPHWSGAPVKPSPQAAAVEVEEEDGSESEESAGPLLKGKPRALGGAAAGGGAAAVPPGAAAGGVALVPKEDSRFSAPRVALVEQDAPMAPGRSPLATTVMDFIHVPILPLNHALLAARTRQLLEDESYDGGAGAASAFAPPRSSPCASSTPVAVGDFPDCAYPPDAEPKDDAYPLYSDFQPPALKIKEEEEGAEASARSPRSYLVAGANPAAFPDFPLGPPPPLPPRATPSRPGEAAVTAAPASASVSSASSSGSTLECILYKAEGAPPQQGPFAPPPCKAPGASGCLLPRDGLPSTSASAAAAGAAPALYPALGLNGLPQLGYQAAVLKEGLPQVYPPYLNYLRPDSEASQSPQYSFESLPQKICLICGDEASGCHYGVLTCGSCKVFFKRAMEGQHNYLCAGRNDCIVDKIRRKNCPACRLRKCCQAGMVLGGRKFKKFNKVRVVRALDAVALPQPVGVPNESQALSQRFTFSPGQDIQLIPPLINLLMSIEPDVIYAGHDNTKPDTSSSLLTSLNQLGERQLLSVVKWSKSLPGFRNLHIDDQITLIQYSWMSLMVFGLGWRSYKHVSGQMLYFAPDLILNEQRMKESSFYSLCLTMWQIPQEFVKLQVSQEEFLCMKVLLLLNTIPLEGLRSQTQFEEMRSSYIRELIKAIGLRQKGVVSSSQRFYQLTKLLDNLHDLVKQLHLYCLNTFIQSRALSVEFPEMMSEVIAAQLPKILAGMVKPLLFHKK
In words: Competitive binding of test compounds vs 3H-R5020 to the progesterone receptor (MCF-7 cytosol). The settings on record: for Total Binding (DPM) ± S.D.: 3H-R5020 (20 nM) bound; for Total Binding (DPM) ± S.D. / inhibition: competitor at 400× fold excess, 12-14 hours on ice; for binding to the PR (in words): compared with 20-oxopregnacalciferol where stated; for inhibition: of 3H-R5020 (20 nM) binding. As to the method: Cell culture and extract preparation: Human Breast Adenocarcinoma cells (MCF-7 cells) extract is used as the progesterone receptor source. The cells were grown to confluency in phenol red-free DMEM with 10% calf serum. After replacing the medium, the cells were dosed with 10 nM Estradiol and incubated for an additional 24 hours to induce the expression of the progesterone receptor. The cells were washed with Hanks Balanced Salt Solution (HBSS: 5.0 mM KCl, 0.3 mM KH2 PO4, 138 mM NaCl, 4.0 mM NaHCO3, 0.3 mM Na2HPO4, 5.6 mM D-Glucose, 1.3 mM CaCl2 and 0.5 mM MgCl2.6H2O) and then incubated with Ca/Mg-free HBSS+1 mM EDTA for 5-10 minutes at 37° C. After harvesting, the cells were pelleted by centifugation for 5.0 minutes at 4.0° C. The cell pellet was then resuspended in TDG buffer (10 mM Tris-HCl, pH 7.4, 0.5 mM DTT and 50% Glycerol) and sonicated for 15 seconds. The cytosolic fraction was obtained by centrifugation at 50,000 RPM for 20 minutes in TLA 100.2 rotor. The supernatent (cytosol) was removed and stored on ice for use in the binding assay. The Cytosolic fraction was always prepared fresh. Binding Assay: The ability of the test compounds to compete for binding to the progesterone receptor was tested as follows: 1--The incubation mix consisted of the following: 100 μl 3H-R5020 (20 nM) 5 μl Ethanol or test compound in the ethanol providing a 400 fold excess of compound 100 μl MCF-7 Cell Extract 2--The mixture was incubated 12-14 hours on ice. 3--250 μl of 50% HAP slurry was added+3 mL of TDG buffer. 4--The samples are allowed to sit on ice for 30 minutes with vortexing every 10 minutes. 5--The HAP was pelleted by centrifugation at 1500 rpms for 3 minutes. 6--The pellet was washed three more times with TDG buffer. 7--The final pellet was resuspended in 1 ml Ethanol, vortexed and allowed to sit at room temperature for 30 minutes with vortexing every 10 minutes. 8--The samples were finally centrifuged at 2000 rpms. The supernatent was removed, mixed with counting fluid and the amount of radioactivity in each sample was determined by counting in a beta scintillation counter. 1--The source of the progesterone receptor is the cytosolic fraction of MCF-7 cells (human breast cancer cell line) which were dosed with Estradiol 24 hours prior to harvesting and processing. 2--The cytosolic fractions used in all the binding measurements were freshly prepared. No frozen extracts were used. 3--All competitive compounds were added at 400× fold excess of the labelled R5020.

The subject of a further assay is glucocorticosteroid. To be noted: Teutsch et al, U.S. Pat. No. 4,386,085; cited from earlier work.
The test system of another assay is pregnancy. To be noted: used in conjunction with synthetic prostaglandins; cited from earlier work.
In a further assay the test system is progesterone. The settings on record: Teutsch et al, U.S. Pat. No. 4,386,085; cited from earlier work.

In the case of `C=C1/C(=C\C=C2/CCC[C@]3(C)[C@@H]([C@H](C)/C=C/[C@H](C)C(C)(C)O)CC[C@@H]23)C[C@@H](O)C[C@@H]1O` [1α,25-dihydroxyvitamin D2], in the assay on calcium homeostasis, the “regulation of calcium homeostasis (in words)” value is recorded as “highly potent regulators of calcium homeostasis”.

For the molecule `C=C1/C(=C\C=C2/CCC[C@]3(C)[C@@H]([C@H](C)CCCC(C)(C)O)CC[C@@H]23)C[C@@H](O)C[C@@H]1O` [1α,25-dihydroxyvitamin D3], in the assay with calcium homeostasis, the “regulation of calcium homeostasis (in words)” value is on record as “highly potent regulators of calcium homeostasis”.

For `C=C1/C(=C\C=C2/CCC[C@]3(C)[C@@H](C(C)=O)CC[C@@H]23)C[C@@H](O)C[C@@H]1O` [1α-hydroxy-20-oxopregnacaliciferol], the “binding to the PR (in words)” value in assay [1] is “prevents binding to the PR”. Besides, the “binding to the vitamin D receptor (in words)” value with vitamin D receptor is “nor did they bind to the vitamin D receptor”. Also, in assay [2], the “calcemic activity (in words)” value is “None of the above three compounds had any calcemic activity”.

On to `C[C@H](CO)[C@H]1CC[C@H]2/C(=C/C=C3CCCCC3)CCC[C@]12C` [4a, 19-Nor-3-desoxy-22-hydroxy-homopregnacalciferol], for which, on progesterone receptor, the “Total Binding (DPM) ± S.D.” value was 4139 ± 62 DPM, the “binding to the PR (in words)” value was “did also bind to the PR” and the inhibition was found to be 13%.

With `C[C@H](CO)[C@H]1CC[C@H]2/C(=C/C=C3CCC4(CC3)OCCO4)CCC[C@]12C` [4b, 19-Nor-3-desoxy-2-ethylene ketal-22-hydroxyhomopregnacalciferol], at progesterone receptor, the “Total Binding (DPM) ± S.D.” value turned out to be 2881 ± 152 DPM, the “binding to the PR (in words)” value is listed as “did also bind to the PR but to a lesser degree” and the inhibition turned out to be 40%.

With `C[C@H](C=O)[C@H]1CC[C@H]2/C(=C/C=C3CCCCC3)CCC[C@]12C` [5a, 19-Nor-3-desoxy-homopregnacalciferol 22-aldehyde], at progesterone receptor, the “Total Binding (DPM) ± S.D.” value is 3045 ± 90 DPM, the “binding to the PR (in words)” value is listed as “did also bind to the PR” and the inhibition is 36%. For the same molecule, the “binding to the PR, times more than the 20-ketone 6a” value at progesterone receptor (compared with 20-ketone 6a) is on record as 1.5 times.

As for `C[C@H](C=O)[C@H]1CC[C@H]2/C(=C/C=C3CCC4(CC3)OCCO4)CCC[C@]12C` [5b, 19-Nor-3-desoxy-2-ethylene ketal-homopregnacalciferol 22-aldehyde], at progesterone receptor, the “Total Binding (DPM) ± S.D.” value is listed as 2546 ± 120 DPM, the “binding to the PR (in words)” value was “did also bind to the PR but to a lesser degree” and the inhibition is 47%.

Consider `CC(=O)[C@H]1CC[C@H]2/C(=C/C=C3CCCCC3)CCC[C@]12C` [6a, 19-Nor-3-desoxy-20-oxopregnacalciferol], for which, on progesterone receptor, the “Total Binding (DPM) ± S.D.” value was 3616 ± 171 DPM and the inhibition amounted to 24%. Further, the “binding to the PR, lesser degree than 20-oxopregnacalciferol” value on progesterone receptor (compared with previously synthesized 20-oxopregnacalciferol) is recorded as 40%.

For `CC(=O)[C@H]1CC[C@H]2/C(=C/C=C3CCC4(CC3)OCCO4)CCC[C@]12C` [6b, 19-Nor-3-desoxy-2-ethylene ketal-20-oxopregna-calciferol], at progesterone receptor, the “Total Binding (DPM) ± S.D.” value was 2531 ± 165 DPM, the “binding to the PR (in words)” value is “did also bind to the PR but to a lesser degree” and the inhibition was determined as 47%.

With `CC(=O)[C@H]1CC[C@H]2/C(=C/C=C3CCC(=O)CC3)CCC[C@]12C` [6c, 19-Nor-3-desoxy-2,20-dioxopregnacalciferol], at progesterone receptor, the “Total Binding (DPM) ± S.D.” value is 2036 ± 133 DPM, the “binding to the PR (in words)” value is “almost the same binding activity to the PR” and the inhibition is 58%.

Turning to `CC(=O)[C@H]1CC[C@H]2/C(=C/C=C3C[C@@H](O)C[C@H](O)C3)CCC[C@]12C` [19-nor-1α-hydroxy-20-oxopregnacalciferol], the “binding to the PR (in words)” value in assay [1] is listed as “prevents binding to the PR”. For the same molecule, in the assay on vitamin D receptor, the “binding to the vitamin D receptor (in words)” value is reported as “nor did they bind to the vitamin D receptor”. The “calcemic activity (in words)” value in assay [2] was “None of the above three compounds had any calcemic activity”.

For `C=C1CC[C@H](O)C/C1=C/C=C1\CCC[C@]2(C)[C@@H](C(C)=O)CC[C@@H]12` [20-oxopregnacalciferol, 20-oxo-pregnacalciferol], in assay [1], the “binding to the PR (in words)” value is on record as “did bind to the PR”. Besides, in the assay on vitamin D receptor, the “binding to the vitamin D receptor (in words)” value is recorded as “nor did they bind to the vitamin D receptor”. In assay [2], the “calcemic activity (in words)” value was “None of the above three compounds had any calcemic activity”. On progesterone receptor, the “Total Binding (DPM) ± S.D.” value was 1950 ± 170 DPM and the inhibition was found to be 59%.

`CCC(=O)[C@@]1(C)CC[C@H]2[C@@H]3CCC4=CC(=O)CCC4=C3CC[C@@]21C` [R5020, reference compound]: the “Total Binding (DPM) ± S.D.” value on progesterone receptor came out at 750 ± 231 DPM.

As for `CC#C[C@]1(O)CC[C@H]2[C@@H]3CCC4=CC(=O)CCC4=C3[C@@H](c3ccc(N(C)C)cc3)C[C@@]21C` [RU 486], in the assay with glucocorticosteroid, the “antiglucocorticosteroid activity (in words)” value was “strong”. Besides, the “termination of pregnancy (in words)” value with pregnancy was “terminates pregnancy”. Moreover, in the assay on progesterone, the “antiprogesterone activity (in words)” value is “strong”.

Values taken from US5614512A, “20-Oxo-pregnacalciferol analogs with binding affinity to the progesterone receptor” (Wisconsin Alumni Research Foundation, priority 1995, dated 1997).
